Data on one molecule can be found in patent publication US20240124470A1, “FIVE-MEMBERED RING DERIVATIVE AND MEDICAL USE THEREOF” (SICHUAN HAISCO PHARMACEUTICAL CO., LTD., priority 2020, published 2024).

Data set [1] in a line: Stability test in mouse liver microsomes. The format is in vitro ADME. On the procedure: 3. Stability Test in Mouse Liver Microsomes At 37° C., 1 μM of the test compound was incubated with mouse liver microsomes (0.5 mg/mL) supplemented with NADPH regeneration system for 5, 10, 20, 30 and 60 minutes, and then LC-MS/MS method was used to detect the concentration of the test compound in the generated sample. The half-life (T1/2) and inherent clearance rate (CLint(mic)) of the compound in mouse liver microsome solution were obtained by calculating at the corresponding time points and the remaining percentage of the compound.
On the technique in general: Microsomes from liver hold many membrane-bound enzymes, among them those of drug oxidation.

The nature of data set [2]: Stability test in human liver microsomes. The format is in vitro ADME. On the procedure: 7. Stability Test in Human Liver Microsomes At 37° C., 1 μM of the test compound was incubated with human liver microsomes (0.5 mg/mL) supplemented with NADPH regeneration system for 5, 10, 20, 30 and 60 minutes, and then LC-MS/MS method was used to detect the concentration of the test compound in the generated sample. The half-life (T1/2) and inherent clearance rate (CLint(mic)) of the compound in human liver microsome solution were obtained by calculating at the corresponding time points and the remaining percentage of the compound.

Data set [3] can be described thus: Evaluation of pharmacokinetics in mice. In kind it is in vivo. As to conditions: male, mouse, plasma, oral; C57 mice, intravenous 5 mg/kg and intragastric 20 mg/kg. On the procedure: Evaluation of Pharmacokinetics in Mice
Male C57 mice (purchased from Hunan SJA Laboratory Animal Co., Ltd, license number: SCXK (Xiang) 2019-0004), 20-25 g, were fasted overnight. On the day of the experiment, 18 male C57 mice were divided into 2 groups, with 9 mice in each group. The test compound was administered intravenously and intragastrically at doses of 5 mg/kg and 20 mg/kg respectively. Before administration and 5 min, 15 min, 30 min, 1 h, 2 h, 4 h, 6 h, 8 h and 24 h after administration, 0.1 ml of blood was collected from the orbital venous plexus, placed in an EDTAK2 centrifuge tube, and centrifuged at 6000 rpm at 4° C. for 5 min, and then the plasma was collected. The plasma sample was added to an acetonitrile solution containing an internal standard (dexamethasone, 500 ng/mL), vortexed and centrifuged at 10,000 rpm for 10 min, and the supernatant was taken for LC-MS/MS analysis. Pharmacokinetic parameters were calculated using the non-compartmental model in WinNonlin Version 8.0 (Pharsight, Mountain View, CA) pharmacokinetic software.

The target in the next data set is T1, CYP3A4-M (Homo sapiens, UniProt P08684).
T1 construct: pre-incubated with the human liver microsome solutions containing 5 enzyme mixed substrates; from tissue; host or cells: human liver microsomes
T1 sequence (P08684 whole entry): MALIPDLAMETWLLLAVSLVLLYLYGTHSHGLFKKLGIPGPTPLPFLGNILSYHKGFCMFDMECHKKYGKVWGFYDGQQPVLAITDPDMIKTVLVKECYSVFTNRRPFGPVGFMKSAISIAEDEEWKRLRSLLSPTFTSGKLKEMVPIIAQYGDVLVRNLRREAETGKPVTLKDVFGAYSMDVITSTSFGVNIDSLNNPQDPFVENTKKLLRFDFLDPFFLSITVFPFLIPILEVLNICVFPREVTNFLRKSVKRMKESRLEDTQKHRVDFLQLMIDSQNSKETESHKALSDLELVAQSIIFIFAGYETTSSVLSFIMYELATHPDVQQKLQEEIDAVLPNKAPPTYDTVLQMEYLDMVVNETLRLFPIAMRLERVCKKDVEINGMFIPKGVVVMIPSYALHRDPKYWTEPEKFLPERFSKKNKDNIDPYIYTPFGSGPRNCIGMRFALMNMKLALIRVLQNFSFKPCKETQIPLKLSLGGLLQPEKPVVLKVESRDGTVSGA
Description: Cytochrome P450 isoenzyme inhibition test, human liver microsomes: CYP3A4-M. The note with it: human liver microsomes 0.1 mg/mL; read-out: IC50, inhibitory activity on CYP3A4-M. In kind it is in vitro ADME. How it is done: 9. Cytochrome P450 Isoenzyme Inhibition Test Experimental objective: The inhibitory effect of the test compound on the activity of human liver microsomal cytochrome P450 isoenzyme (CYP1A2, CYP2C19, CYP2D6 and CYP3A4) was determined. Experimental operation: The test compound at an incubation concentration of 0, 0.03, 0.1, 0.3, 1, 3, 10, 30 and 100 μM was pre-incubated with the human liver microsome solutions containing 5 enzyme mixed substrates (liver microsome concentration: 0.1 mg/mL) in a water bath at 37° C. for 10 min, respectively, and then a coenzyme factor (NADPH) was added to start the reaction. After incubation in a water bath at 37° C. for 10 min, the reaction was terminated by adding glacial acetonitrile solution containing an internal standard, shaken for 1 min, centrifuged at 4° C. and 10,000 rpm for 10 min, and the supernatant was taken for LC/MS/MS analysis. The amount of metabolites produced by each CYP enzyme substrate was detected. The activity of each CYP isoenzyme was reflected by the production rate of each metabolite. […]

Another data set concerns the target T2, hERG potassium channel (Homo sapiens, UniProt Q12809).
T2 construct: expressed in transfected cells
Description: Effects on hERG potassium channels, manual whole cell patch-clamp in CHO cells. In kind it is cell-based. As to conditions: hERG potassium current, room temperature. From the text: 2. Effects of the Compounds on hERG Potassium Channels
Experimental platform: electrophysiological manual patch-clamp system
Cell line: Chinese hamster ovary (CHO) cells stably expressing hERG potassium ion channel
Experimental method: For CHO (Chinese Hamster Ovary) cells stably expressing hERG potassium channel, whole cell patch-clamp technique was used to recorded hERG potassium channel current at room temperature in this experiment. The glass microelectrode is made of a glass electrode blank (BF150-86-10, Sutter) by a puller. The tip resistance after filling the liquid in the electrode is about 2-5 MΩ. The glass microelectrode can be connected to the patch-clamp amplifier by inserting the glass microelectrode into an amplifier probe. The clamping voltage and data recording are controlled and recorded by the pClamp 10 software through a computer. The sampling frequency is 10 kHz, and the filtering frequency is 2 kHz. After the whole cell records were obtained, the cells were clamped at −80 mV, and the step voltage that induced the hERG potassium current (IhERG) was depolarized from −80 mV to +20 mV for 2 s, then repolarized to −50 mV, and returned to −80 mV after 1 s. This voltage stimulation was given every 10 s, and the administration process was started after the hERG potassium current was confirmed to be stable (at least 1 minute). The compound was administered for at least 1 minute at each test concentration, and at least 2 cells (n≥2) were tested at each concentration.
Data analysis processing was carried out by using pClamp 10, GraphPad Prism 5 and Excel software. The inhibition degree of hERG potassium current (peak value of hERG tail current induced at −50 mV) at different compound concentrations was calculated by the following formula: Inhibition %=[1−(I/Io)]×100%.
Among the formula, Inhibition % represents the percentage of inhibition of hERG potassium current by the compound, and I and Io represent the amplitude of hERG potassium current after and before dosing, respectively.
Compound IC50 was calculated using GraphPad Prism 5 software by fitting according to the following equation:
Y=Bottom+(Top−Bottom)/(1+10^((LogIC50−X)×HillSlope))
Among the equation, X represents the Log value of the tested concentration of the test sample, Y represents the inhibition percentage at the corresponding concentration, and Bottom and Top represent the minimum and maximum inhibition percentage, respectively.

T2 sequence (Q12809 whole entry): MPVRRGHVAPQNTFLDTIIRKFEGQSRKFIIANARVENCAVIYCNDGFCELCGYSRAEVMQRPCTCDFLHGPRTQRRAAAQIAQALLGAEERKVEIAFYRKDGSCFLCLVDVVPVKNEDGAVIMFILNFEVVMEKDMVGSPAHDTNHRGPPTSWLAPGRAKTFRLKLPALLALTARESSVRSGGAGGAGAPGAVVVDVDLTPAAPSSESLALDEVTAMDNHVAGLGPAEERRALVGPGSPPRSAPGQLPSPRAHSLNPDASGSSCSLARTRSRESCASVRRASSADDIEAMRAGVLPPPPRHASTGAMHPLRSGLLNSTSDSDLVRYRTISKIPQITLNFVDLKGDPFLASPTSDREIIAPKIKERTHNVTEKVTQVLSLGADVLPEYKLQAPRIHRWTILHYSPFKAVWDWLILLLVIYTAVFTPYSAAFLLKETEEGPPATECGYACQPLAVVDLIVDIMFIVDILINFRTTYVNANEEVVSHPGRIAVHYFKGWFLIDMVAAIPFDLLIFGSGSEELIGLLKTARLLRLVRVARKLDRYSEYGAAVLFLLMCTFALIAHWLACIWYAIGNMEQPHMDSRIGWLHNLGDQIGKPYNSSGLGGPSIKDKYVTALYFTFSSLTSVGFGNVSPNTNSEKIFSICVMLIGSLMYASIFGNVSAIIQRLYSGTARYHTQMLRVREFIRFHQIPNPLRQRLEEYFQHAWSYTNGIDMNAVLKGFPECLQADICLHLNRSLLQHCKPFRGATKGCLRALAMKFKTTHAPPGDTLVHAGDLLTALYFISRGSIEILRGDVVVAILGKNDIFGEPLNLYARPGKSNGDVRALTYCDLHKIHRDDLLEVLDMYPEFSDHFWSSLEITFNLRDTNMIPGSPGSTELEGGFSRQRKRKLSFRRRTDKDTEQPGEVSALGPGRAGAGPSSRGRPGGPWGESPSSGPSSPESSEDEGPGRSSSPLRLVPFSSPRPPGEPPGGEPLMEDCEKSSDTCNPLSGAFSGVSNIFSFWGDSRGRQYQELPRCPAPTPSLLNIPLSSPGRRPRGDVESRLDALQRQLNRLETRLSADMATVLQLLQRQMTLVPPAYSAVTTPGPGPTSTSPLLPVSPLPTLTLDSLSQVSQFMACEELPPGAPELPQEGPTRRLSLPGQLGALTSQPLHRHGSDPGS

As a reminder, the half-life is the time in which the quantity being followed falls by half. A higher half-life goes with slow loss. A word on the bioavailability: it is dose-corrected exposure relative to a reference, in per cent. Read a low bioavailability as poor availability. By IC50 is commonly meant the concentration at which inhibition is half-maximal. For the molecule `N#Cc1ccc(COc2cccc(-c3ccc(Cc4nc5sc(C(=O)O)cc5n4C[C@@H]4CCO4)c(F)c3)n2)c(F)c1` [Compound 6, (S)-2-(4-(6-((4-cyano-2-fluorobenzyl)oxy)pyridin-2-yl)-2-fluorobenzyl)-1-(oxetan-2-ylmethyl)-1H-thieno[2,3-d]imidazole-5-carboxylic acid], the “T1/2 ratio of compound 6 to compound DZ-6” value is “greater than 2” in data set [1] (mouse liver microsomes) and “greater than 3” in data set [2] (human liver microsomes test (section 7)). Further, the half-life at 1 μM in data set [1] (mouse liver microsomes 0.5 mg/mL, 1 μM compound, NADPH, 37° C.) is 4.93 h; in data set [2] (human liver microsomes 0.5 mg/mL, 1 μM compound, NADPH, 37° C.) it was 9.23 h. Besides, the microsomal CLint at 1 μM in data set [1] (mouse liver microsomes 0.5 mg/mL, 1 μM compound, NADPH, 37° C., read-out: CLint(mic)) is 4.69 µL/min/mg; in data set [2] (human liver microsomes 0.5 mg/mL, 1 μM compound, NADPH, 37° C., read-out: CLint(mic)), 2.5 µL/min/mg. Besides, the bioavailability in data set [3] was > 25%. Further, the IC50 at CYP3A4-M was > 50 µM; on hERG potassium channel, > 40 µM.
